Legend:
[1] = target: Activin receptor type-2B (Homo sapiens) (UniProt Q13705); test: ACVR2B Kinase screen; conditions: Compound concentration 1.0 uM
[2] = target: T1, Ephrin type-A receptor 3 (Homo sapiens) (UniProt P29320); test: EPHA3 Kinase screen; conditions: Compound concentration 1.0 uM
T1 sequence (whole entry): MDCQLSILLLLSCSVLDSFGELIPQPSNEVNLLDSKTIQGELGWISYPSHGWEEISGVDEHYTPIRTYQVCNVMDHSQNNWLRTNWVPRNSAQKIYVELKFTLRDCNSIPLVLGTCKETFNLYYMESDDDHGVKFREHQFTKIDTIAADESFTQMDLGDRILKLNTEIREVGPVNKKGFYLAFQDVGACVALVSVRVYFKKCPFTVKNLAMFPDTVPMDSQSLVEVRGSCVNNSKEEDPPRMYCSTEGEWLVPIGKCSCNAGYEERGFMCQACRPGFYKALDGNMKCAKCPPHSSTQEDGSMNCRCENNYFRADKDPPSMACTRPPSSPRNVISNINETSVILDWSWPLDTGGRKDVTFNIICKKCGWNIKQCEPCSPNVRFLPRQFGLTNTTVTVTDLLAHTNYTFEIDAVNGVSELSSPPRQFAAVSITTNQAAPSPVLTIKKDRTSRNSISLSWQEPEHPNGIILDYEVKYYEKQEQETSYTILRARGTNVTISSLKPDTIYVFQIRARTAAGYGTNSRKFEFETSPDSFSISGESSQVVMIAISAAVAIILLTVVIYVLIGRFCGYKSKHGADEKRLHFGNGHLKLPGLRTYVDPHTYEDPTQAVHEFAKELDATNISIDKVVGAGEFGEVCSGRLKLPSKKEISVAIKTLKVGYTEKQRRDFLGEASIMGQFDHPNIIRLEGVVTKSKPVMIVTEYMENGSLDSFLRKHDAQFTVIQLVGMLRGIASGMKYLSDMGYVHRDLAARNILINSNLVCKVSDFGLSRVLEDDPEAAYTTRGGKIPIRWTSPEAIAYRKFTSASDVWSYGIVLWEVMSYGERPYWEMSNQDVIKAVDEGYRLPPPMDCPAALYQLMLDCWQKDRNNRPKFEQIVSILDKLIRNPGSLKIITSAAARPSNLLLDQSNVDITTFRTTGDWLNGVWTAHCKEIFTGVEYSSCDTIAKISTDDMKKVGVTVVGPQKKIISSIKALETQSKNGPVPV

[3] = target: Serine/threonine-protein kinase WNK2 (Homo sapiens) (UniProt Q9Y3S1); test: WNK2 Kinase screen; conditions: Compound concentration 1.0 uM
Sequence of Serine/threonine-protein kinase WNK2 (Homo sapiens) (Q9Y3S1 whole entry): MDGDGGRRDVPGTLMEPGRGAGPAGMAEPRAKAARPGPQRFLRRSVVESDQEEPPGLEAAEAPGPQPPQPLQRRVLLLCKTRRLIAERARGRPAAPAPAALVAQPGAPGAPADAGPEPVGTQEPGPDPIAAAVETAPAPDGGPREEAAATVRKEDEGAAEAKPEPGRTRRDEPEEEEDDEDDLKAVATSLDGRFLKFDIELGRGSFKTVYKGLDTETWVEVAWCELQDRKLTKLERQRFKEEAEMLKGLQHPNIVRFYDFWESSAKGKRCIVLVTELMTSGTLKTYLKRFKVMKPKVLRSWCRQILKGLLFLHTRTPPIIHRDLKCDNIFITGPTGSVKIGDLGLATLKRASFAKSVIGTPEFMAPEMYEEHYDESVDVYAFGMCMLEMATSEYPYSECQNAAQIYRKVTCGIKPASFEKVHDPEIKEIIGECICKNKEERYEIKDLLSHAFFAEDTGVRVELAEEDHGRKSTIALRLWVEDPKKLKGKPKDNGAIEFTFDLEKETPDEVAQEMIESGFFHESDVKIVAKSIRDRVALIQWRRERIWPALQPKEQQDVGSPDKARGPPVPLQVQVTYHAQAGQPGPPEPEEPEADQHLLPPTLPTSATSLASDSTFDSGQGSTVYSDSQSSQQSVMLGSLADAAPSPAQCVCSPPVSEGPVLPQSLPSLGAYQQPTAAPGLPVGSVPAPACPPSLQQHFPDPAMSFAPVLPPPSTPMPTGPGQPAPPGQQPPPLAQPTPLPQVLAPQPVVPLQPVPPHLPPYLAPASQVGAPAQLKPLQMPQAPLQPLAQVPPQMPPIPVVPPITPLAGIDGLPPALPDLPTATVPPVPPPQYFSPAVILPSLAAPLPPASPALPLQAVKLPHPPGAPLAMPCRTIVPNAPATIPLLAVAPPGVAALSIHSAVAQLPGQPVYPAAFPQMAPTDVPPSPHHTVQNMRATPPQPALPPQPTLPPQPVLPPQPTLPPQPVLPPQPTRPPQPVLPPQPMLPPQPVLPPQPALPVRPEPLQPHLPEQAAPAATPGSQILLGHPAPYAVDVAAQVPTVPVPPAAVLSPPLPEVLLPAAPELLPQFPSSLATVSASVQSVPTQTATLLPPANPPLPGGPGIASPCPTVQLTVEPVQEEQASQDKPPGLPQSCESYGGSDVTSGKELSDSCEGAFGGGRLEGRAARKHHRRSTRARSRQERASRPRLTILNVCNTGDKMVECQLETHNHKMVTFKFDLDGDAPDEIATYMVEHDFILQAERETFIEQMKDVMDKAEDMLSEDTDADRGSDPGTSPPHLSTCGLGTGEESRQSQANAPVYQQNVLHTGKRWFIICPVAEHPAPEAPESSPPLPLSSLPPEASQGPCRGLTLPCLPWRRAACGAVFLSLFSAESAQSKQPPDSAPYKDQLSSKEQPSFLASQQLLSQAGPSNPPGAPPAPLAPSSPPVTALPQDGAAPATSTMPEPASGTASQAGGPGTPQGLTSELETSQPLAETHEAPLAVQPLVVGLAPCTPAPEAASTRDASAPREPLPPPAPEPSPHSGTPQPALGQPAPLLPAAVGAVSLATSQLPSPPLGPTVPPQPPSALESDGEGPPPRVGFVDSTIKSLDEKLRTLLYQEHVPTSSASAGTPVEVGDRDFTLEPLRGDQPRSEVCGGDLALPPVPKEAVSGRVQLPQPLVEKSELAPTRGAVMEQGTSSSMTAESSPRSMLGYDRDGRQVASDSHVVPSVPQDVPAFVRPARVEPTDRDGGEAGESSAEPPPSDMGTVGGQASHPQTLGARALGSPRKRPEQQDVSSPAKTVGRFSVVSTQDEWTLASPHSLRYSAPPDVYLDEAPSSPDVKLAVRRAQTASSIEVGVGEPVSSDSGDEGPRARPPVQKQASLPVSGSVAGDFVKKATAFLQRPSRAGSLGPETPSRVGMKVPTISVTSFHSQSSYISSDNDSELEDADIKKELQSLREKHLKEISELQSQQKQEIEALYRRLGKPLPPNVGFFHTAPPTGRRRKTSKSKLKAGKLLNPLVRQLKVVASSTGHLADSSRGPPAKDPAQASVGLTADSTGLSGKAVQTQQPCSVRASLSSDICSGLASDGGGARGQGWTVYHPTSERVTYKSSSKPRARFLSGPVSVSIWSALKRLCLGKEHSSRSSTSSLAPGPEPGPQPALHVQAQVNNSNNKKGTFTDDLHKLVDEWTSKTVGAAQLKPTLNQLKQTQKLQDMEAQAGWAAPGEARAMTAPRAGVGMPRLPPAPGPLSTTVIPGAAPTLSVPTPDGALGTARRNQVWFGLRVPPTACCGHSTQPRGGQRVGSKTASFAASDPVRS

[4] = target: T2, cGMP-dependent protein kinase 1 (Homo sapiens) (UniProt Q13976); test: PRKG1 Kinase screen; conditions: Compound concentration 1.0 uM
T2 sequence (whole entry): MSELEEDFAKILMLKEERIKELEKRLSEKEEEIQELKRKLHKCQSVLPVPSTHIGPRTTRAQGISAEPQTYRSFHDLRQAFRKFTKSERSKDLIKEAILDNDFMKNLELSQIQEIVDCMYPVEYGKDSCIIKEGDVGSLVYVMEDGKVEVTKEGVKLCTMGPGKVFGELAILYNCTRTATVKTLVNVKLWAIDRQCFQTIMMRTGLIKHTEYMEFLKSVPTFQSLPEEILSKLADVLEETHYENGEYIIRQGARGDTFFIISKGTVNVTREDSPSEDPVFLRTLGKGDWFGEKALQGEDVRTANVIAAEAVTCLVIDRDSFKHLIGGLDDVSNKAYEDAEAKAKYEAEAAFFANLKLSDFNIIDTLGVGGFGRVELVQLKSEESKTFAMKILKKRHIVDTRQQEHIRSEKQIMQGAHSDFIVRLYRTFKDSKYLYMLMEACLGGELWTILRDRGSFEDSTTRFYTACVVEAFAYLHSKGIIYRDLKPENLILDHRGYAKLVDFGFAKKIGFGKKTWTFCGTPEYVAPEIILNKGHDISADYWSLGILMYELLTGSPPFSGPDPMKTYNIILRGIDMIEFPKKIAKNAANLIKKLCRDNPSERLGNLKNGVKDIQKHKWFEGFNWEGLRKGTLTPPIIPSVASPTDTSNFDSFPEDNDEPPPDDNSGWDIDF

[5] = organism: Rattus norvegicus; test: Protein Serine/Threonine Kinase, PKC, Non-Selective Eurofins-Panlabs enzyme assay; conditions: Compound concentration 10.0 uM
[6] = target: Ribosomal protein S6 kinase alpha-5 (Homo sapiens) (UniProt O75582); test: RPS6KA5 (MSK1) Kinase screen; conditions: Compound concentration 1.0 uM
Sequence of Ribosomal protein S6 kinase alpha-5 (Homo sapiens) (O75582 whole entry, looked up): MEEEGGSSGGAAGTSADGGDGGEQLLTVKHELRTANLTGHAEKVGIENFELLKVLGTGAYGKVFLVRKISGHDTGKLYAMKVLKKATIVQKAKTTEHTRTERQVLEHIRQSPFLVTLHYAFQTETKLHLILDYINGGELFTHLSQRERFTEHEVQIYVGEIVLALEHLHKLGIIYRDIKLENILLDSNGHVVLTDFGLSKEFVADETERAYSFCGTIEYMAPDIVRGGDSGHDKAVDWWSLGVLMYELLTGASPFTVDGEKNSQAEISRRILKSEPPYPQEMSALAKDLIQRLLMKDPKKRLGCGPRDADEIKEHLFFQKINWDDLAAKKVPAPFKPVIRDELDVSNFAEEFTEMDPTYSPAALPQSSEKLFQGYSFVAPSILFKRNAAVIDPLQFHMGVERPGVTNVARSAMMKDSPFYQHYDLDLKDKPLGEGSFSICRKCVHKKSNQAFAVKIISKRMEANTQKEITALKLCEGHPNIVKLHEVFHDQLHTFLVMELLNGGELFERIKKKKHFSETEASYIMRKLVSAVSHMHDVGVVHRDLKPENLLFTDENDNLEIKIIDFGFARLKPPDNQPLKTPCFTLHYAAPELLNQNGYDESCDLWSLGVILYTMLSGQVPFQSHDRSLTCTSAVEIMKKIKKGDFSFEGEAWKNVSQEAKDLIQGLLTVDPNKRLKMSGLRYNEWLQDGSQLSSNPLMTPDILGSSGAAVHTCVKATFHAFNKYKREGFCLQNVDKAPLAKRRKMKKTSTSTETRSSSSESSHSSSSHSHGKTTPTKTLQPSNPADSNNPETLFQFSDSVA

[7] = target: T3, Inhibitor of nuclear factor kappa-B kinase subunit alpha (Homo sapiens) (UniProt O15111); test: CHUK (IKK alpha) Kinase screen; conditions: Compound concentration 1.0 uM
T3 sequence (whole entry): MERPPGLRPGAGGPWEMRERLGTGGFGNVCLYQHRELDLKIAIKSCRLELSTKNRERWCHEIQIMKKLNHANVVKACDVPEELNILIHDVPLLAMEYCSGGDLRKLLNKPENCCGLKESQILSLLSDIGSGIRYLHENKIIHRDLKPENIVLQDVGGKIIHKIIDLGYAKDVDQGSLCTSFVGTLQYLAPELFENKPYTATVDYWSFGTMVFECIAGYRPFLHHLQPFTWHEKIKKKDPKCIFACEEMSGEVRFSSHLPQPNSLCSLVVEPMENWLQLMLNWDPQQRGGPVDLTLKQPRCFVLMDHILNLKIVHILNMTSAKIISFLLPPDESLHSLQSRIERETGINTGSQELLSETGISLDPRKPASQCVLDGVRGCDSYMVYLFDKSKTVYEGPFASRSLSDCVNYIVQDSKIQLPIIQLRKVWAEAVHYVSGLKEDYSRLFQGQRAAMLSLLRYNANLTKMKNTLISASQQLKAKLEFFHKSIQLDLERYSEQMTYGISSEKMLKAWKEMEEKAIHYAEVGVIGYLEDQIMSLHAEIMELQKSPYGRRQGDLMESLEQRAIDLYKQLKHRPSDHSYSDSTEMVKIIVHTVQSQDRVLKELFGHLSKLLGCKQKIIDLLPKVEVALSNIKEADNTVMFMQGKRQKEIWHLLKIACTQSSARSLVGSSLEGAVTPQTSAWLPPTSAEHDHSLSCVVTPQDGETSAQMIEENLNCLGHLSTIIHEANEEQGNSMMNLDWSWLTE

[8] = target: Glycogen synthase kinase-3 alpha (Homo sapiens) (UniProt P49840); test: GSK3A (GSK3 alpha) Kinase screen; conditions: Compound concentration 1.0 uM
Sequence of Glycogen synthase kinase-3 alpha (Homo sapiens) (P49840 2-483 limits assumed): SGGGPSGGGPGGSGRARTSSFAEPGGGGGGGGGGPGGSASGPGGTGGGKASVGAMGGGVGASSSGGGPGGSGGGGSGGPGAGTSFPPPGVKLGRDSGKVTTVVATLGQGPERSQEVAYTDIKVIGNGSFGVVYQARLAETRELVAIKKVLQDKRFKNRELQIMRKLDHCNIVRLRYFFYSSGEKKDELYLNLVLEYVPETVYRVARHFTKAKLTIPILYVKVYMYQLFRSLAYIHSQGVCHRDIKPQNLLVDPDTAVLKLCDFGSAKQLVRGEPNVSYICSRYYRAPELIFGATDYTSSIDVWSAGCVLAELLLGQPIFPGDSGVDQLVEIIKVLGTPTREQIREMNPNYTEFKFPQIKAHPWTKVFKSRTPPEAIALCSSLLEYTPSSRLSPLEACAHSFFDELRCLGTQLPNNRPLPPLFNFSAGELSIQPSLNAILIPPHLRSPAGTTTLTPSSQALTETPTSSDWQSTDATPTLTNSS

[9] = target: Mitogen-activated protein kinase 14 (Homo sapiens) (UniProt Q16539); test: MAPK14 (p38 alpha) Kinase screen; conditions: Compound concentration 1.0 uM
Sequence of Mitogen-activated protein kinase 14 (Homo sapiens) (Q16539 whole entry): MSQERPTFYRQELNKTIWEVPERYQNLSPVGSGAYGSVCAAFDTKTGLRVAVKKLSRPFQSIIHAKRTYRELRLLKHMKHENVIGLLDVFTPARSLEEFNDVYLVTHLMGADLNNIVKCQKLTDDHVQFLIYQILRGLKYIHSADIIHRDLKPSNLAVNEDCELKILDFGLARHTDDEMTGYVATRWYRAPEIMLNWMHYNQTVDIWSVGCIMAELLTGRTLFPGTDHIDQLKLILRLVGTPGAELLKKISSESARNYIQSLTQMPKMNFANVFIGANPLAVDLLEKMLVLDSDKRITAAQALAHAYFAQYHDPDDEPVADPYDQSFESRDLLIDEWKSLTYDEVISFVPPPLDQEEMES

[10] = target: Serine/threonine-protein kinase Chk2 (Homo sapiens) (UniProt O96017); test: CHEK2 (CHK2) Kinase screen; conditions: Compound concentration 1.0 uM
Sequence of Serine/threonine-protein kinase Chk2 (Homo sapiens) (O96017 whole entry): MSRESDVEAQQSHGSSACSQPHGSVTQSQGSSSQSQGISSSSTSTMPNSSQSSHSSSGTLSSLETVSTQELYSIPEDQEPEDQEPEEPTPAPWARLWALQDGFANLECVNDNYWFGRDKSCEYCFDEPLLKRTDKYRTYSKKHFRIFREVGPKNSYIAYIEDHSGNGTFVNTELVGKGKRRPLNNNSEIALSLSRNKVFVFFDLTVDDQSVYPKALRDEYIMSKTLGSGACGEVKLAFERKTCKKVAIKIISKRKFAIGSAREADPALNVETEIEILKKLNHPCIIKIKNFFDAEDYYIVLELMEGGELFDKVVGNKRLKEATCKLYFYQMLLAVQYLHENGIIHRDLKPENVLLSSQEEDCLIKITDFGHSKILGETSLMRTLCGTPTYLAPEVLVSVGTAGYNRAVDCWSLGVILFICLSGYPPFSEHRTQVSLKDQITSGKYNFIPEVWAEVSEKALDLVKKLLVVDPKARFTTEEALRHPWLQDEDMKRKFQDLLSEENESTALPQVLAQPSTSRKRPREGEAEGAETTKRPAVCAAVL

[11] = target: PI3-kinase p110-delta/p85-alpha (Homo sapiens) (UniProt P27986+O00329); test: PIK3CD/PIK3R1 (p110 delta/p85 alpha) Kinase screen; type: protein-complex assay; conditions: Compound concentration 1.0 uM

Measured: inhibition

Sequence of Activin receptor type-2B (Homo sapiens) (Q13705 whole entry): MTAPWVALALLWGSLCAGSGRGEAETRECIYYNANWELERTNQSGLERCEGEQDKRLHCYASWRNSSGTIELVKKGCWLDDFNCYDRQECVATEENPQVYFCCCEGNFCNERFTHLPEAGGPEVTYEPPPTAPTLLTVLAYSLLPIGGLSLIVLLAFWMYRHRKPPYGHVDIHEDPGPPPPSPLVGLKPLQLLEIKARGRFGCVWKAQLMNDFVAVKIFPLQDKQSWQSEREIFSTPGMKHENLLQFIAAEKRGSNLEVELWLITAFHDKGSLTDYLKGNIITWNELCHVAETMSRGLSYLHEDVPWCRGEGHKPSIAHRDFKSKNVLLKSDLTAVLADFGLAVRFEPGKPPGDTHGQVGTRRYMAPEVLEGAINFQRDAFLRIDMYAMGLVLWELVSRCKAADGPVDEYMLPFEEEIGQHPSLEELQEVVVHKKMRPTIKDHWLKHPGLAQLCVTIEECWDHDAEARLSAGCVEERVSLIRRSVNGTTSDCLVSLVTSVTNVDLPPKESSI

C[C@@H]1CN(c2cc(-c3n[nH]c4ccc(OC5(C)CC5)cc34)ncn2)C[C@H](C)O1 [MLi-2]
inactive: [1] -1.21% | [2] -3.28% | [3] -1.69% | [4] 0.194% | [5] 26% | [6] 0.435% | [7] 8.17% | [8] 0.0184% | [9] -6.52% | [10] 14.9% | [11] 2.08%
